Reference: patent publication US7960349B2 (Bristol-Myers Squibb Company, priority 2006, dated 2011)
Where “and” joins values, the source holds several entries; their conditions need not be identical. Equal values may be shown once. Read-outs that look alike come from different tables or passages of the source. Where a SMILES comes first, the peptide text is derived from it. [ ]: non-standard residue; d: D form. The star is where a group is joined. ξ: configuration not given here. Ala(6-(2-MePh)pyridin-3-yl) = Cc1ccccc1-c1ccc(C[C@H](N)C(=O)O)cn1; Bip(2'-Et-4'-OMe) = CCc1cc(OC)ccc1-c1ccc(C[C@H](N)C(=O)O)cc1; Lactoyl(3-(imidazol-4-yl)) = O=C([C@@H](O)Cc1c[nH]cn1)*; Bip(2'-Me) = Cc1ccccc1-c1ccc(C[C@H](N)C(=O)O)cc1; ξαMePhe(2-F) = CC(N)(Cc1ccccc1F)C(=O)O; Thr(3ξ) = CC(O)[C@H](N)C(=O)O; ξαMeP = CC1(C(=O)O)CCCN1; Aib = CC(C)(N)C(=O)O

How the values were obtained:
[1] = Exposure during ipGTT in ob/ob mice; type: in vivo, mouse; conditions: sc injection
Protocol: (§1) Peptides were dissolved in an appropriate vehicle at a concentration in nmol/ml equivalent to the dose that was to be administered in nmol/kg so that each mouse would receive the same volume/weight of dosing solution. Male C57BL/6-ob/ob mice (10 weeks old) were randomized into groups of 6 mice per group based on fed plasma glucose and body weight. After an overnight fast, mice were weighed and placed in the experimental lab. After 30 min in the environment, the mice were bled via tail tip at −30 min and immediately injected subcutaneously (sc) with vehicle or the peptide dissolved in vehicle (0.1 ml solution/100 g body weight). At time 0 the mice were bled and then injected intraperitoneally with 50% glucose (2 g/kg) to initiate the intraperitoneal glucose tolerance test (ipGTT). The mice were bled 30, 60, 120 and 180 min after the glucose injection. Blood samples were drawn into potassium EDTA, placed on ice during the study and subsequently centrifuged for 10 min at 3000 rpm at 4° C. Plasma samples were diluted 11-fold for glucose analysis in the Cobas System. Another 5 μl plasma sample was diluted 5-fold with 20 μl of Sample Diluent (Insulin ELISA assay kit, Crystal Chem. Inc.) and stored at −20° C. for subsequent analysis using the Ultra Sensitive Mouse Insulin ELISA kit (Crystal Chem Inc.).

[2] = Dog pharmacokinetic study; type: in vivo; conditions: for half-life: read-out: t½ (converted)
Protocol: The pharmacokinetic parameters of the Compounds of SEQ ID NO: 9, 118, 151 and 158 were determined in male beagle dogs (n=3-4, 14±1 kg). Following an overnight fast, each animal received the Compounds of SEQ ID NO: 9, 118, 151 and 158 either as an intravenous bolus via femoral vein (67 μg/kg) or by subcutaneous injection given at near the shoulder blades (67 μg/kg). Each animal received both intravenous and subcutaneous doses with a one-week washout between doses following a crossover design. The dosing vehicle for both routes of administration was propylene glycol:pH 7.4 phosphate buffer (50:50) or 0.2 M Tris (pH 8.0). Serial blood samples were collected in EDTA-containing microcentrifuge tubes at predose, 0.083, 0.25, 0.5, 0.75, 1, 2, 4, 6, 8, 24, and 30 hours post-dose after intravenous administration; at predose, 0.25, 0.5, 0.75, 1, 2, 4, 6, 8, 24, and 30 hours post-dose after subcutaneous administration. Approximately 0.3 mL of blood was collected at each time point. Blood samples were immediately centrifuged at 4° C. The obtained plasma was frozen with dry ice and stored at −20° C. Plasma drug levels were determined using the LC-MS/MS assay described below.
Plasma samples from the in vivo dog study were prepared for analysis by precipitating plasma proteins with two volumes of AcCN containing an internal standard. The samples were vortex mixed and the precipitated proteins were removed by centrifugation. The resulting supernatants were transferred to a 96-well plate and 10 μL were injected for TFC-LC/MS/MS analysis.
The TFC-HPLC system (Cohesive TX-1 Flux, Aria 2300 System) consisted of a loading pump, an eluting pump, and a CTC PAL autosampler (Cohesive Technologies, Franklin, Mass.). The columns used were Phenomenex Synergi Fusion-RP (C18, 2.0×50 mm, 4μ) (Phenomenex, Torrance, Calif.) as the analytical column and Turbo-Flow (TF) HTLC Cyclone column (0.5×50 mm) (Cohesive Technologies, Franklin, Mass.) as the extraction column for on-line sample processing. The mobile phase A consisted of 10 mM ammonium formate and 0.1% formic acid in water and mobile phase B consisted of 0.1% formic acid in AcCN. Turbo-Flow Chromatography was used to obtain a cleaner sample. A rapid gradient elution was used for analyte separation. The samples were injected onto the Turbo-Flow HTLC Cyclone column and analytes were separated from biological fluid components with using 100% H2O at 1.5 mL/min. The TF column was back flushed and analytes were back eluted from the TF to HPLC analytical column using a ramp to 60% B over 2 min and held there for 30 seconds at 0.3 mL/min to separate and to elute the analytes from the HPLC column into the mass spectrometer. Both columns were washed for an additional minute and then both columns were re-equilibrated at initial conditions.
The HPLC was interfaced to a Sciex API 4000 mass spectrometer (Applied Biosystems, Foster City, Calif.) and was equipped with a TurboIonspray ionization source. Ultra high purity nitrogen was used as the nebulizing and turbo-gas. The temperature of turbo-gas was set at 300° C. and the interface heater was set at 60° C. Selected Reaction Monitoring (SRM) was used for data acquisition. Multiple charged ion species, i.e. (M+2H)^2+ for Compound of SEQ ID NO: 158 were selected in Q1 and were collisionally dissociated with high purity nitrogen at a pressure of 3.5×10^−3 torr in Q2 to form specific product ions which were subsequently monitored in Q3. The ion transitions and voltages are summarized below (Table 4).
The standard curve concentrations, ranging from 1 to 1000 nM, were analyzed in duplicate. The curves were fitted with a linear regression weighted by reciprocal concentration […]. Quality control (QC) samples, prepared in blank matrix at the same concentrations as the standards were also analyzed in each analytical set. […]

[3] = tested on: ob/ob mice; test: Intraperitoneal glucose tolerance test (ipGTT) in ob/ob mice after sc injection; type: in vivo, mouse; conditions: for Potency in ob/ob mice: % AUC Reduction in Plasma Glucose in an IP Glucose Tolerance Test after SC Injection of Compound: 10 nmol/kg sc, relative to vehicle-treated group; for effect on postprandial plasma insulin / effect on postprandial plasma glucose: sc; for effect on postprandial plasma glucose: 0 to 180 or 210 min; for Potency in ob/ob mice ED50: sc injection, plasma glucose AUC in ipGTT
Protocol: as §1

[4] = vehicle propylene glycol/pH 7.4 phosphate buffer (1:1)
[5] = dog, plasma, 67 ug/kg, male beagle dogs, intravenous 67 μg/kg
[6] = dog, plasma, sc, 67 ug/kg, male beagle dogs, subcutaneous 67 μg/kg
[7] = vehicle 0.2 M Tris buffer (pH 8.0)
[8] = 30 nmol/kg sc, ipGTT ob/ob mice

SMILES | Exposure/dose during ipGTT in ob/ob mice [1] | Exposure in dogs (sc@67 μg/kg) [2, 4] | Potency in ob/ob mice: % AUC Reduction in Plasma Glucose in an IP Glucose Tolerance Test after SC Injection of Compound [3] | effect on postprandial plasma insulin ([3]; ipGTT ob/ob mice) | effect on postprandial plasma glucose ([3]; ipGTT ob/ob mice) | Exposure in dogs (sc@67 μg/kg) [2, 7] | Potency in ob/ob mice ED50 [3] | also measured
CCc1cc(OC)ccc1-c1ccc(C[C@H](NC(=O)[C@H](CC(=O)O)NC(=O)[C@H](CO)NC(=O)[C@@H](NC(=O)C(C)(Cc2ccccc2F)NC(=O)[C@@H](NC(=O)CNC(=O)[C@H](CCC(=O)O)NC(=O)C(C)(C)NC(=O)[C@@H](N)Cc2c[nH]cn2)C(C)O)C(C)O)C(=O)N[C@@H](Cc2ccc(-c3ccccc3C)cc2)C(N)=O)cc1 (stereo partly drawn) [Compound I, reference compound] (H-H[Aib]EG[Thr(3ξ)][ξαMePhe(2-F)][Thr(3ξ)]SD[Bip(2'-Et-4'-OMe)][Bip(2'-Me)]-NH2) | 22 nM * h/nmol/kg | 0.089 µM·h | −15% (p = 0.247, NS) | statistically significant dose-dependent increase | decreasing in a dose-dependent manner |  |  | 
CCc1cc(OC)ccc1-c1ccc(C[C@H](NC(=O)[C@H](CC(=O)O)NC(=O)[C@H](CO)NC(=O)[C@@H](NC(=O)C(C)(Cc2ccccc2F)NC(=O)[C@@H](NC(=O)CNC(=O)[C@H](CCC(=O)O)NC(=O)C(C)(C)NC(=O)[C@@H](N)Cc2c[nH]cn2)C(C)O)C(C)O)C(=O)N[C@@H](Cc2ccc(-c3ccccc3C)nc2)C(N)=O)cc1 (stereo partly drawn) [SEQ ID NO: 9] (H-H[Aib]EG[Thr(3ξ)][ξαMePhe(2-F)][Thr(3ξ)]SD[Bip(2'-Et-4'-OMe)][Ala(6-(2-MePh)pyridin-3-yl)]-NH2) | 18 nM * h/nmol/kg | 1.23 µM·h | −68% (p < 0.0001) | significant increase | statistically significant decrease | 0.452 µM·h | 5 nmol/kg | AUC [2, 5]: 0.529 ± 0.125 µM·h; MRT [2, 5]: 2.4 ± 0.5 h; clearance ([2]; dog, plasma, 67 ug/kg, male beagle dogs, intravenous 67 μg/kg, read-out: CLp): 1.4 ± 0.4 mL/min/kg; Vd ([2]; dog, plasma, 67 ug/kg, male beagle dogs, intravenous 67 μg/kg, read-out: Vss): 0.21 ± 0.07 L/kg; half-life [2, 5]: 7.1 ± 2.1 h; AUC [2, 6]: 0.452 ± 0.153 µM·h; Cmax [2, 6]: 116 ± 34 nM; MRT [2, 6]: 3.6 ± 1 h; Tmax [2, 6]: 1.1 ± 0.6 h; half-life [2, 6]: 2.6 ± 1.2 h; bioavailability ([2]; dog, plasma, male beagle dogs, subcutaneous 67 μg/kg vs intravenous): 93 ± 22%; maximum increase in postprandial plasma insulin AUC [3, 8]: 187.7%; plasma glucose AUC decreased ([3]; 100 nmol/kg sc, ipGTT ob/ob mice): 85.8%; Potency in ob/ob mice ED50 ([3]; listed as 9): ED50 = 5 nmoles/kg
CCc1cc(OC)ccc1-c1ccc(C[C@H](NC(=O)[C@H](CC(=O)O)NC(=O)[C@H](CO)NC(=O)[C@@H](NC(=O)C(C)(Cc2ccccc2F)NC(=O)[C@@H](NC(=O)CNC(=O)[C@H](CCC(=O)O)NC(=O)C2(C)CCCN2C(=O)[C@@H](N)Cc2c[nH]cn2)[C@@H](C)O)[C@@H](C)O)C(=O)N[C@@H](Cc2ccc(-c3ccccc3C)nc2)C(N)=O)cc1 (stereo partly drawn) [SEQ ID NO: 118] (H-H[ξαMeP]EGT[ξαMePhe(2-F)]TSD[Bip(2'-Et-4'-OMe)][Ala(6-(2-MePh)pyridin-3-yl)]-NH2) | 4.4 nM * h/nmol/kg | 4.02 µM·h | −70% (p < 0.001) |  | statistically significant decrease |  | 2.5 nmol/kg | plasma glucose AUC decreased [3, 8]: 81%; Potency in ob/ob mice ED50 ([3]; listed as 118): ED50 = 2.5 nmoles/kg
CCc1cc(OC)ccc1-c1ccc(C[C@H](NC(=O)[C@H](CC(=O)O)NC(=O)[C@H](Cc2c[nH]cn2)NC(=O)[C@@H](NC(=O)C(C)(Cc2ccccc2F)NC(=O)[C@@H](NC(=O)CNC(=O)[C@H](CCC(=O)O)NC(=O)C2(C)CCCN2C(=O)[C@@H](O)Cc2c[nH]cn2)[C@@H](C)O)[C@@H](C)O)C(=O)N[C@@H](Cc2ccc(-c3ccccc3C)nc2)C(N)=O)cc1 (stereo partly drawn) [SEQ ID NO: 151] ({Lactoyl(3-(imidazol-4-yl))}-[ξαMeP]EGT[ξαMePhe(2-F)]THD[Bip(2'-Et-4'-OMe)][Ala(6-(2-MePh)pyridin-3-yl)]-NH2) | 16 nM * h/nmol/kg |  |  |  | statistically significant decrease | 1.566 µM·h | 1 nmol/kg and 2 nmol/kg | plasma glucose AUC decreased ([3]; 3 nmol/kg sc, ipGTT ob/ob mice): 67%; Potency in ob/ob mice ED50 ([3]; listed as 151): ED50 = 1 nmoles/kg
